The record followed here is patent US10570118B2, “Isoquinolones as BTK inhibitors” (Boehringer Ingelheim International GmbH, priority 2016, dated 2020).

Test [1] concerns the target human full length His-tagged BTK (Homo sapiens (Human), UniProt Q06187). Kind of test: BTK Lanthscreen Eu Kinase Binding assay. To be noted: TR-FRET tracer displacement, 2 nM BTK, 30 min pre-incubation. On the procedure: BTK Lanthscreen® Eu Kinase Binding assay:
A Lanthscreen® Eu Kinase Binding assay (Life Technologies) was performed to quantitate the ability of test compounds to bind to BTK. The assay is based on the binding and displacement of Alexa Fluor647-labeled Kinase Tracer #236 to the ATP-binding site of human full length His-tagged BTK (Life Technologies cat # PV3587) with TR-FRET detection using a europium-labeled anti-His antibody. The assay was assembled in 384-well low volume NBS black plates (Corning) where 2 nM BTK and test compound in DMSO at varying concentrations were pre-incubated for 30 min at 28° C. in assay buffer consisting of 50 mM HEPES, pH 7.4, 10 mM MgCl2, 1 mM EGTA. 100 μM Na3VO4 and 0.01% Brij 35. Then, 2 nM of Eu-anti His antibody and 30 nM Kinase Tracer were added and incubated for […] at 28° C. Following incubation, TR-FRET signal was read on an Envision plate reader (Excitation: 340 nm; Emissions: 615 and 665 nm). The 665: 615 nm emission ratio was calculated and converted to POC compared to control and blank wells.

For a further test, the target named is BTK (Homo sapiens (Human), UniProt Q06187). Kind of test: Inhibition of IL-6 production in B cells co-stimulated with ODN 2006 and anti-hIgD. The class given is cell-based. To be noted: primary CD19+ B cells, anti-human IgD + ODN 2006 stimulation, 18-24 hours; read-out: B-cell IL-6 IC50. On the procedure: Inhibition of IL-6 Production in B Cells Co-Stimulated with ODN 2006 and Anti-hIgD
Sequence of BTK (Q06187 whole entry): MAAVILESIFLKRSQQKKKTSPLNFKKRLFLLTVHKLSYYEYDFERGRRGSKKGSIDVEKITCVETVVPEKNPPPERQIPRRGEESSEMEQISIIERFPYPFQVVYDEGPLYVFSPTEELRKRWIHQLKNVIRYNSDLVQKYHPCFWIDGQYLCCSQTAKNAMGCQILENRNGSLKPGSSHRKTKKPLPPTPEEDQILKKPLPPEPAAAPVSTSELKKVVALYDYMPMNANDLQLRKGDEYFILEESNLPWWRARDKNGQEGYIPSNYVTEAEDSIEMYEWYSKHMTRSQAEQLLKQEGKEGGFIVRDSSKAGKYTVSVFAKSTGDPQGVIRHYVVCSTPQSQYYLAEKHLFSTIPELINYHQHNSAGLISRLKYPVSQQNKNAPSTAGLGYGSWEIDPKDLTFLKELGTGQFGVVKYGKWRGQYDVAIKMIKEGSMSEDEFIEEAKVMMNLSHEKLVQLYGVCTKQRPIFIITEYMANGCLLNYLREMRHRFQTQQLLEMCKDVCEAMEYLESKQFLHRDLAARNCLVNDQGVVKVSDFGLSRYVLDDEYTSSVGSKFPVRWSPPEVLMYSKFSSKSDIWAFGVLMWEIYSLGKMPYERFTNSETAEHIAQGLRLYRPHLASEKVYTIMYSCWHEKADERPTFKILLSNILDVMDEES
Primary CD19+ B cells (AllCells # PB010F) are thawed and plated in RPMI containing 10% HI FBS in a 384-well tissue cultured plate at 20,000 cells/well. The cells are treated with test compound (0.5% DMSO final concentration) and incubated for 1 hour at 37° C., 5% CO2. Cells are then stimulated with 5 μg/mL Goat F(ab′)2 anti-human IgD (SouthernBiotech #2032) and 2 uM ODN 2006 (InvivoGen # till-2006) and incubated for 18-24 hours at 37° C., 5% CO2. IL-6 in the supernatant is measured using Meso Scale Discovery kit # K211AKB-6.
(§1) The compounds described herein show a range of selectivity against EGFR as measured in cellular assays (BTK activity measured by IL-6 production in primary CD19^+ cells; EGFR activity measured by EGFR phosphorylation in A431 cells).

Another test concerns the target EGFR (Homo sapiens (Human), UniProt P00533). Put plainly: Inhibition of EGFR autophosphorylation in A431 human epithelial cells stimulated with epithelial growth factor. The class given is cell-based. Particulars: 16 hours compound, EGF 60 ng/mL 10 minutes, read-out: A431 p-EGFR IC50. The method, then: Inhibition of EGFR Autophosphorylation in A431 Human Epithelial Cells Stimulated with Epithelial Growth Factor
A431 cells (ATCC # CRL-1555 FZ) are thawed and plated in DMEM containing 10% FBS in a 384-well tissue culture treated plate at 15,000 cells/well. After incubating for 24 hours at 37° C., 5% CO2, the cells are treated with test compound (1% DMSO final concentration) and incubated for 16 hours at 37° C., 5% CO2. EGF (Millipore, 01-107) is added at a final concentration of 60 ng/mL and incubated for 10 minutes. The medium is removed, the cells are lysed, and phospho EGFR is measured (Meso Scale Diagnostics, N31CB-1).
as §1

Structures are written as SMILES.

Sequence of human full length His-tagged BTK (Q06187 whole entry): as above
Sequence of EGFR (P00533 25-1210): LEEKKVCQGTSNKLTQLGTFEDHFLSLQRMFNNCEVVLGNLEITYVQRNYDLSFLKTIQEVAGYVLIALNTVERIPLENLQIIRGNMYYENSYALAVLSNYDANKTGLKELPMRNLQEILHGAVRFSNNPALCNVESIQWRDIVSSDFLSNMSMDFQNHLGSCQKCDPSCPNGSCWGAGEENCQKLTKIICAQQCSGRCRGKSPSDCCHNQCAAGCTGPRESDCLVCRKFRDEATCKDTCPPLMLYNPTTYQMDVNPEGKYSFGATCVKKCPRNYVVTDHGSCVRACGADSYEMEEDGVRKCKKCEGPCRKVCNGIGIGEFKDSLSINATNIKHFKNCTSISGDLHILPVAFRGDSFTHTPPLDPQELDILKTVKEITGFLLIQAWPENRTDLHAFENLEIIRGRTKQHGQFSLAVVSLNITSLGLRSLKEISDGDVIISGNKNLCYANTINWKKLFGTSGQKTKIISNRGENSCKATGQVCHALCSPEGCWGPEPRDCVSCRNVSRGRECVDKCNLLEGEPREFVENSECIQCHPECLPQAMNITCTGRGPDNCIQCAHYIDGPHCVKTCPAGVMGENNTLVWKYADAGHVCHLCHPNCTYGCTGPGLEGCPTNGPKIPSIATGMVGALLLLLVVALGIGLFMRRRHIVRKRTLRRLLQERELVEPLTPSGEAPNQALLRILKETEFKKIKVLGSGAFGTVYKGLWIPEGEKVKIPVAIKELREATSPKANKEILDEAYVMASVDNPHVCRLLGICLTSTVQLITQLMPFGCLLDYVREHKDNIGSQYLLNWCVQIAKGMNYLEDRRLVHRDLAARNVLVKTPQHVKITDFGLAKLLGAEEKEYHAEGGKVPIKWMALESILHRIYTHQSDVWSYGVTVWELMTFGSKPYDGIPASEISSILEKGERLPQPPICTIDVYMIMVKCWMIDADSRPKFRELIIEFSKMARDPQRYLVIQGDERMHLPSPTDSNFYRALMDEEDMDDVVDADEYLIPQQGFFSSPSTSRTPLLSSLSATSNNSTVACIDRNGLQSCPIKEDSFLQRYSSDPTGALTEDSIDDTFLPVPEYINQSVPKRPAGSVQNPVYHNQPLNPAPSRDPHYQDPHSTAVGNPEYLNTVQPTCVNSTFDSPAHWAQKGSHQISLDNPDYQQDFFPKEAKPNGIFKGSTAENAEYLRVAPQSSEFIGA

One may read the IC50 as the point on the concentration scale where inhibition reaches its midpoint. The molecule `CC#CC(=O)N(C)Cc1cc2cc(C3CC3)ccc2c(=O)n1-c1cccc(-c2cc(C(N)=O)n(C)c2)c1CO` [Example 34] yielded a concentration for half-maximal inhibition (IC50) in test [1] of 530 nM.

As for `CC#CC(=O)N1CC(c2cc3cc(C4CC4)ccc3c(=O)n2-c2cccc(-c3ccc4[nH]ncc4c3)c2CO)C1` [Example 30], the IC50 in test [1] stood at 450 nM.

Take `C=CC(=O)N1CC(c2cc3cc(C4CC4)ccc3c(=O)n2-c2cccc(-c3cc(C(N)=O)n(C)c3)c2CO)C1` (single isomer, unassigned) [Example 43]: the values for the concentration for half-maximal inhibition (IC50) (in test [1]; on BTK; at EGFR) were 0.56 nM, 3.6 nM and above 10000 nM, respectively.

As to `N#CN1CC(c2cc3cc(C4CC4)ccc3c(=O)n2-c2cccc(-c3cccc(C(N)=O)c3)c2CO)C1` [Example 4], the IC50 in test [1] was found to be 5 nM.

For the molecule `CC#CC(=O)N1CC(c2cc3cc(C4CC4)ccc3c(=O)n2-c2cccc(-c3cc(N)c(=O)n(C)c3)c2CO)C1` [Example 28], the half-maximal inhibitory concentration (IC50) in test [1] turned out to be 310 nM.

Consider `C=CC(=O)N1CC(c2cc3cc(C4CC4)ccc3c(=O)n2-c2cccc(-c3cc(C(N)=O)n(C)c3)c2CO)C1` [Example 7], for which the IC50 in test [1] is 0.7 nM; on BTK, 5.6 nM; at EGFR it was above 10000 nM.

`C=CC(=O)N1CCC(c2cc3cc(C4CC4)ccc3c(=O)n2-c2cccc(-c3ccn4cncc4c3)c2CO)C1` (stereo not shown) [Example 25]: in test [1], the half-maximal inhibitory concentration (IC50) is 160 nM.

`C=CC(=O)N(C)Cc1cc2cc(C3CC3)ccc2c(=O)n1-c1cccc(-c2cccc(C(N)=O)c2)c1CO` [Example 36] had an IC50 in test [1] of 580 nM.

Molecule `C=CC(=O)N1CCC(c2cc3cc(C4CC4)ccc3c(=O)n2-c2cccc(-c3ccncc3)c2CO)C1` (stereo not shown) [Example 22] returned a concentration for half-maximal inhibition (IC50) in test [1] of 37 nM.

Consider `Cn1cc(-c2cccc(-n3c(C4CCN(C#N)C4)cc4cc(C5CC5)ccc4c3=O)c2CO)cc(N)c1=O` (stereo not shown) [Example 31], for which, in test [1], the half-maximal inhibitory concentration (IC50) worked out at 480 nM.

Turning to `C=CC(=O)N1CC(c2cc3cc(C4CC4)cc(F)c3c(=O)n2-c2cccc(-c3cc(C(N)=O)n(C)c3)c2CO)C1` [Example 40], the figures for the IC50 (in test [1]; at BTK; on EGFR) were 0.42 nM, 4.6 nM and above 10000 nM, respectively.

With `C=CC(=O)N1CCC(c2cc3cc(C4CC4)ccc3c(=O)n2-c2cccc(-c3ccnc(N)c3F)c2CO)C1` (stereo not shown) [Example 37], the IC50 in test [1] came to 620 nM.

The molecule `C=CC(=O)N1CC(Cc2cc3cc(C4CC4)ccc3c(=O)n2-c2cccc(-c3ccnc(NC)c3)c2CO)C1` [Example 33] came in with an IC50 in test [1] of 510 nM.

`CC#CC(=O)N1CC(c2cc3cc(C4CC4)ccc3c(=O)n2-c2cccc(-c3ccnc(NC)c3)c2CO)C1` [Example 35] registered an IC50 in test [1] of 530 nM.

On to `CC#CC(=O)N1CC(c2cc3cc(C4CC4)ccc3c(=O)n2-c2cccc(-c3cc(C(N)=O)n(C)c3)c2CO)C1` [Example 19], for which the concentration for half-maximal inhibition (IC50) in test [1] stood at 64 nM.

Regarding `C=CC(=O)N1CC(Cc2cc3cc(C4CC4)ccc3c(=O)n2-c2cccc(-c3cc(C(N)=O)n(C)c3)c2CO)C1` [Example 2], the IC50 in test [1] was 4 nM; at BTK, 36 nM; on EGFR, above 10000 nM.

With `C=CC(=O)N1CC(Cc2cc3cc(C4CC4)cc(OC)c3c(=O)n2-c2cccc(-c3cc(C(N)=O)n(C)c3)c2CO)C1` [Example 38], the IC50 in test [1] is 250 nM.

In turn, `C=CC(=O)N(C)Cc1cc2cc(C3CC3)ccc2c(=O)n1-c1cccc(-c2ccnc(N)c2)c1CO` [Example 23] displayed an IC50 in test [1] of 120 nM.

In turn, `C=CC(=O)N1CC(Cc2cc3cc(C4CC4)cc(F)c3c(=O)n2-c2cccc(-c3cc(C(N)=O)n(C)c3)c2CO)C1` [Example 41] yielded an IC50 in test [1] of 0.71 nM.

For the molecule `C=CC(=O)N1CCC(c2cc3cc(C4CC4)ccc3c(=O)n2-c2cccc(-c3cc(C(N)=O)n(C)c3)c2CO)C1` (stereo not shown) [Example 13], the 50% inhibitory concentration (IC50) was 2.4 nM in test [1], 12 nM on BTK and above 10000 nM at EGFR.

`N#CN1CC(c2cc3cc(C4CC4)ccc3c(=O)n2-c2cccc(-c3ccc4[nH]ncc4c3)c2CO)C1` [Example 3] gave an IC50 in test [1] of 1.9 nM.

As for `C=CC(=O)N1CC(c2cc3cc(C4CC4)ccc3c(=O)n2-c2cccc(-c3cc(N)ncn3)c2CO)C1` [Example 21], the figures for the IC50 (in test [1]; on BTK; on EGFR) were 0.48 nM, 1.9 nM and above 10000 nM, respectively.

For `C/C=C/C(=O)N1CC(c2cc3cc(C4CC4)ccc3c(=O)n2-c2cccc(-c3cc(C(N)=O)n(C)c3)c2CO)C1` [Example 26], the IC50 in test [1] is 230 nM.

In the case of `C=CC(=O)N1CCC1Cc1cc2cc(C3CC3)ccc2c(=O)n1-c1cccc(-c2cc(C(N)=O)n(C)c2)c1CO` (stereo not shown) [Example 6], the IC50 in test [1] stood at 3.9 nM; at BTK, 16 nM; at EGFR it was 4500 nM.

For `CN(C#N)Cc1cc2cc(C3CC3)ccc2c(=O)n1-c1cccc(-c2cc(N)c(=O)n(C)c2)c1CO` [Example 32], in test [1], the half-maximal inhibitory concentration (IC50) turned out to be 490 nM.

On to `CC#CC(=O)N1CC(Cc2cc3cc(C4CC4)ccc3c(=O)n2-c2cccc(-c3cc(C(N)=O)n(C)c3)c2CO)C1` [Example 8], for which the IC50 was 11 nM in test [1], 96 nM on BTK and above 10000 nM on EGFR.

Consider `C=CC(=O)N1CC(c2cc3cc(C4CC4)ccc3c(=O)n2-c2cccc(-c3ccnc(N)c3)c2CO)C1` [Example 17], for which the half-inhibitory concentration (IC50) at BTK was 3.7 nM; at EGFR it was above 10000 nM.

For `C=CC(=O)N1CC(Cc2cc3cc(C4CC4)ccc3c(=O)n2-c2cccc(-c3ccc4cncn4c3)c2CO)C1` [Example 27], the half-maximal inhibitory concentration (IC50) in test [1] is 310 nM.

`C=CC(=O)N(C)Cc1cc2cc(C3CC3)ccc2c(=O)n1-c1cccc(-c2cc(N)c(=O)n(C)c2)c1CO` [Example 24] yielded a 50% inhibitory concentration (IC50) in test [1] of 140 nM.

`C/C=C/C(=O)N1CC(c2cc3cc(C4CC4)ccc3c(=O)n2-c2cccc(-c3ccnc(NC)c3)c2CO)C1` [Example 29] came in with a half-inhibitory concentration (IC50) in test [1] of 440 nM.

With `C=CC(=O)N1CC(c2cc3cc(C4CC4)ccc3c(=O)n2-c2cccc(-c3cc(N)c(=O)n(C)c3)c2CO)C1` [Example 11], the concentration for half-maximal inhibition (IC50) in test [1] was 1.9 nM; on BTK, 21 nM; on EGFR, above 10000 nM.

Consider `C=CC(=O)N1CC(c2cc3cc(C4CC4)ccc3c(=O)n2-c2cccc(-c3ccnc(NC)c3)c2CO)C1` [Example 15], for which the IC50 was 4.2 nM in test [1], 8.8 nM at BTK and above 10000 nM at EGFR.

`Cn1cc(-c2cccc(-n3c(C4CN(C#N)C4)cc4cc(C5CC5)ccc4c3=O)c2CO)cc(N)c1=O` [Example 9] registered a 50% inhibitory concentration (IC50) in test [1] of 2.6 nM.

Regarding `C=CC(=O)N(C)Cc1cc2cc(C3CC3)ccc2c(=O)n1-c1cccc(-c2cc(C(N)=O)n(C)c2)c1CO` [Example 18], the IC50 was 59 nM in test [1], 160 nM at BTK and above 10000 nM at EGFR.

For the molecule `C=CC(=O)N1CCC(c2cc3cc(C4CC4)ccc3c(=O)n2-c2cccc(-c3cc(N)c(=O)n(C)c3)c2CO)C1` (stereo not shown) [Example 16], the IC50 was 20 nM in test [1], 92 nM at BTK and above 10000 nM on EGFR.

Take `Cn1cc(-c2cccc(-n3c(C4CN(C#N)C4)cc4cc(C5CC5)ccc4c3=O)c2CO)cc1C(N)=O` [Example 1]: the IC50 in test [1] was 0.7 nM; at BTK it was 4.3 nM; on EGFR, 4700 nM.

For `C=CC(=O)N1CC(c2cc3cc(C4CC4)ccc3c(=O)n2-c2cccc(-c3cc(C(N)=O)n(C)c3)c2CO)C1` (single isomer, unassigned) [Example 42], the IC50 in test [1] was determined as 560 nM.

For `C=CC(=O)N1CC(Cc2cc3cc(C4CC4)ccc3c(=O)n2-c2cccc(-c3cc(N)ncn3)c2CO)C1` [Example 14], the IC50 in test [1] was 19 nM; on BTK it was 85 nM; at EGFR it was above 10000 nM.

Turning to `N#CN1CC(c2cc3cc(C4CC4)ccc3c(=O)n2-c2cccc(-c3cc(N)ncn3)c2CO)C1` [Example 12], the IC50 in test [1] was 3.3 nM; at BTK, 28 nM; on EGFR, 4500 nM.

Turning to `C=CC(=O)N1CC(c2cc3cc(C4CC4)ccc3c(=O)n2-c2cccc(-c3ccnc(N)c3)c2Cl)C1` [Example 20], the IC50 in test [1] was found to be 8.9 nM; on BTK, 37 nM; on EGFR it was 3200 nM.
